{"source": "patent US20120295320A1", "about": "“APPARATUS AND METHOD FOR TREATMENT OF MICROORGANISMS DURING PROPAGATION, CONDITIONING AND FERMENTATION USING STABILIZED CHLORINE DIOXIDE/SODIUM CHLORITE WITH HOPS ACID EXTRACTS” (RESONANT BIOSCIENCES, LLC, priority 2010, published 2012)", "origin": "cited, not measured here", "system": "Weisella confusa", "details": "background statement, fermentation mixture"}
{"substance": "Virginiamycin", "values": [{"measurement": "concentration required to inhibit growth of Weisella confusa", "result": "over 25 mg/L"}]}
